Results: patent publication US8173682B2, “Substituted pyridones as inhibitors of poly(ADP-ribose) polymerase (PARP)” (Aventis Pharmaceuticals Inc., priority 2004, dated 2012)
Counter-ions that a name gives are not always drawn.

How the values were obtained:
[1] = biological target: recombinantly expressed human PARP-1 enzyme (Homo sapiens, UniProt P09874); test: PARP enzyme assay, Method B (tritium-labeled NAD incorporation); assay type: biochemical; conditions: Method B; 200 μM NAD, room temperature 1 hour, pH 8.0; read-out: IC50 (μM)/Method B
Sequence of recombinantly expressed human PARP-1 enzyme (P09874 whole entry): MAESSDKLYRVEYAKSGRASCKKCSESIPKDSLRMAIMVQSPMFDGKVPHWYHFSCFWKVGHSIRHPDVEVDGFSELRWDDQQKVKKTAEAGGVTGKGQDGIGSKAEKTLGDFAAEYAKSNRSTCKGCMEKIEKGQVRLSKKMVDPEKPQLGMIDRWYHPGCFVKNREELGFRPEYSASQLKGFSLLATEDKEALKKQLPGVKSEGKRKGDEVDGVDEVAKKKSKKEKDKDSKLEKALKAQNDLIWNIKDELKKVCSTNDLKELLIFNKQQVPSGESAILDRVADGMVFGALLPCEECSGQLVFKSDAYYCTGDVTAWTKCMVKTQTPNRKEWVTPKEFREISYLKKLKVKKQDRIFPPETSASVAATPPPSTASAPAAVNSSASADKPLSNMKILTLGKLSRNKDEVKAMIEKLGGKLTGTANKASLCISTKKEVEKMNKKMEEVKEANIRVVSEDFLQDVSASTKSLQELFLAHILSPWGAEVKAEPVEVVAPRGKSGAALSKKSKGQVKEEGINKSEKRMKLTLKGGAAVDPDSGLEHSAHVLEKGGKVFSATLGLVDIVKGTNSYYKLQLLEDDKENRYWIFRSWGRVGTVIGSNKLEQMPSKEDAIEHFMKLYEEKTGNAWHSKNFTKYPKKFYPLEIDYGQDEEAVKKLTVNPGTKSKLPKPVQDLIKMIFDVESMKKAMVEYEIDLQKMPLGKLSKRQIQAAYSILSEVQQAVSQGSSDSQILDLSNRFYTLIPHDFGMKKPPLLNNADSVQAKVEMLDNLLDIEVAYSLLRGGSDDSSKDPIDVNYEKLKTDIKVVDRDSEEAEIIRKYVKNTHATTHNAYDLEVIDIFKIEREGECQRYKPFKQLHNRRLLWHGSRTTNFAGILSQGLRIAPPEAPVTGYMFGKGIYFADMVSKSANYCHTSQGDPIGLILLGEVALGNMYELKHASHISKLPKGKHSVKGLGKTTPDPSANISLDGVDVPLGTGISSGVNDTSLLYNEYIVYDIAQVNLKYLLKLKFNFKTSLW
Experimental: Method B: PARP Enzyme Assay:
The IC50 is determined in this method by incubating the substances to be tested with the DNA-activated, recombinantly expressed and purified PARP-1 enzyme. Specifically, various concentrations of the test substance are incubated in 50 μL of reaction solution, which contains 50 mM Tris, 5 mM MgCl2, 1 mM DTT, 200 μM NAD, 0.1 m Ci/mL tritium-labeled NAD, 0.1 mg/mL DNA, 0.1 mg/mL histones, 2 μg/mL recombinantly expressed human PARP-1 enzyme, pH=8.0, at room temperature for 1 hour. The reaction is stopped by adding 150 μL of 20% trichloroacetic acid, and the radiolabeled protein constituents are precipitated. After incubation on ice for 10 minutes, the labeled, insoluble constituents are separated off through a glass fiber filter and, after washing with 20% trichloroacetic acid three times, the radioactivity incorporated by the PARP-1 enzyme is measured by radioluminescence. Consideration of the incorporation rates determined in this way as a function of the concentration of the test substance results in IC50 as the concentration of the test substance which reduces the incorporation rate to half the maximum value attainable (incubation without inhibitor).
The IC50 (fifty percent inhibitory concentration of the test substance in a solution—expressed at micromolar (μM) concentration) measured in accordance with these procedures for the compounds of this invention are summarized in Table 1.

[2] = biological target: T1, recombinant human PARP (PARP1) (Homo sapiens, UniProt P09874); test: PARP enzyme assay, Method A (radioactivity or 'ELISA' enzyme assay with partially purified enzyme); assay type: biochemical; conditions: recombinant human PARP preparation, radioactive or ELISA enzyme assay
T1 construct: Full length human PARP (PARP1) is assembled from PCR fragments; His6 tag with TEV site, from the pFastBac-HTb vector (own knowledge of the vector); made in house; host or cells: insect cells, baculovirus (Bac-to-Bac, Gibco-BRL)
T1 sequence (P09874 whole entry, the tested form may be a part): as the sequence (P09874 whole entry) above
How it was run: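 Partially purified recombinant full-length His-tagged human PARP1, baculovirus-expressed. Radioactive format: 100 μg/mL sonicated DNA, 100 μg/mL histones, 100 mM Tris pH 8.0, 10 mM MgCl2, 200 μM labeled NAD, 10 min 37 °C or 60 min RT, TCA-precipitated counts. ELISA format: 250 μM NAD plus biotin-NAD on histone plates, TMB A450.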

Row | SMILES | IC50 [1] [µM] | IC50 [2] [µM]
1 | CCc1cc(-c2ccc(S(=O)(=O)NCc3ccccc3)s2)c(C)[nH]c1=O [Example 122A, 5-(5-Ethyl-2-methyl-6-oxo-1,6-dihydro-pyridin-3-yl)-thiophene-2-sulfonic acid benzylamide] | 1.22 | –
2 | CCc1cc(-c2cccc(CN3CCC(N4CCCC4)CC3)n2)c(C)[nH]c1=O [Example 182K, 5′-Ethyl-2′-methyl-6-(4-pyrrolidin-1-yl-piperidin-1-ylmethyl)-1′H-[2,3′]bipyridinyl-6′-one] | 4.23 | –
3 | CCc1cc(-c2cncc(C(=O)NCCc3ccccn3)c2)c(C)[nH]c1=O [Example 264, 5′-Ethyl-2′-methyl-6′-oxo-1′,6′-dihydro-[3,3′]bipyridinyl-5-carboxylic acid (2-pyridin-2-yl-ethyl)-amide] | 3.14 | –
4 | CCc1cc(-c2cncc(C(=O)NCC3CCC(C#N)CC3)c2)c(C)[nH]c1=O (centres unmarked) [Example 262, 5′-Ethyl-2′-methyl-6′-oxo-1′,6′-dihydro-[3,3′]bipyridinyl-5-carboxylic acid (4-cyano-cyclohexylmethyl)-amide] | 2.22 | –
5 | CCc1cc(-c2ccc(C=NO)o2)c(C)[nH]c1=O [Example 199A, 5-(5-Ethyl-2-methyl-6-oxo-1,6-dihydro-pyridin-3-yl)-furan-2-carbaldehyde oxime] | 0.51 | –
6 | CCc1cc(-c2ccc(S(=O)(=O)N3CCN(c4ncccn4)CC3)s2)c(C)[nH]c1=O [Example 117, 3-Ethyl-6-methyl-5-[5-(4-pyrimidin-2-yl-piperazine-1-sulfonyl)thiophen-2-yl]-1H-pyridin-2-one hydrochloride] | 25.5 | –
7 | CCc1cc(-c2cncc(C(=O)NCc3ccc(O)c(OC)c3)c2)c(C)[nH]c1=O [Example 265, 5′-Ethyl-2′-methyl-6′-oxo-1′,6′-dihydro-[3,3′]bipyridinyl-5-carboxylic acid 4-hydroxy-3-methoxy-benzylamide] | 4.1 | –
8 | CCc1cc(-c2cncc(C(=O)N3CCCC3)c2)c(C)[nH]c1=O [Example 226, 5-Ethyl-2-methyl-5′-(pyrrolidine-1-carbonyl)-1H-[3,3′]bipyridinyl-6-one] | 0.95 | –
9 | CCc1cc(-c2cncc(C(=O)NC[C@H](C)O)c2)c(C)[nH]c1=O [Example 229, 5′-Ethyl-2′-methyl-6′-oxo-1′,6′-dihydro-[3,3′]bipyridinyl-5-carboxylic acid (2-hydroxy-propyl)-amide] | 4.7 | –
10 | CCc1cc(-c2cncc(C(=O)Nc3cccc(OC)c3)c2)c(C)[nH]c1=O [Example 248, 5′-Ethyl-2′-methyl-6′-oxo-1′,6′-dihydro-[3,3′]bipyridinyl-5-carboxylic acid (3-methoxy-phenyl)-amide] | 0.85 | –
11 | CCc1cc(-c2coc(CNCc3ccccn3)c2)c(C)[nH]c1=O [Example 182F, 3-Ethyl-6-methyl-5-(5-{[(pyridin-2-ylmethyl)-amino]-methyl}-furan-3-yl)-1H-pyridin-2-one] | 1.62 | –
12 | CCc1cc(-c2ccc(C=NOCCN3CCCC3)o2)c(C)[nH]c1=O [Example 199, 3-Ethyl-2-methyl-6-oxo-1,6-dihydropyridin-3-yl)furan-2-carbaldehyde O-(2-pyrrolidin-1-ylethyl)oxime hydrochloride] | 0.18 | –
13 | CCc1cc(-c2coc(CN3CCCC3)c2)c(C)[nH]c1=O [Example 181A] | 2.17 | –
14 | CCc1cc(-c2ccc(S(=O)(=O)NCC3CCCN3CC)s2)c(C)[nH]c1=O (centres unmarked) [Example 102, 5-(5-Ethyl-2-methyl-6-oxo-1,6-dihydropyridin-3-yl)-thiophene-2-sulfonic acid (1-ethyl-pyrrolidin-2-ylmethyl)amide hydrochloride] | – | 0.49
15 | CCc1cc(-c2ccc(S(=O)(=O)N(C)C3CCN(C)C3)s2)c(C)[nH]c1=O (centres unmarked) [Example 81, 5-[5-Ethyl-2-methyl-6-oxo-1,6-dihydropyridin-3-yl]thiophene-2-sulfonic acid methyl (1-methylpyrrolidin-3-yl)amide hydrochloride] | – | 0.54
16 | CCc1cc(-c2ccc(S(=O)(=O)N3CCN(CCN4CCCC4)CC3)s2)c(C)[nH]c1=O [Example 61, 3-Ethyl-6-methyl-5-{5-[4-(2-pyrrolidin-1-yl)ethylpiperazine-1-sulfonyl]thiophen-2-yl}-1H-pyridin-2-one dihydrochloride] | – | 0.43

Row | SMILES | IC50 [1] [µM] | IC50 [2] [µM]
17 | CCc1cc(-c2ccc(CNCc3ccc(C)cc3)s2)c(C)[nH]c1=O [Example 166, 5-{5-[(4-Methylbenzylamino)methyl]thiophen-2-y}]-3-ethyl-6-methyl-1H-pyridin-2-one hydrochloride] | – | 0.68
18 | CCc1cc(-n2nccn2)c(C)[nH]c1=O [Example 12, 3-Ethyl-6-methyl-5-(1,2,3-triazol-2-yl)-1H-pyridin-2-one] | – | 1.6
19 | CCc1cc(-c2ccc(CNc3cc(F)cc(F)c3)s2)c(C)[nH]c1=O [Example 145, 5-{5-[(3,5-Difluoro-phenylamino)-methyl]thiophen-2-yl}-3-ethyl-6-methyl-1H-pyridin-2-one hydrochloride] | – | 4
20 | CCc1cc(-c2ccc(CNCc3ccncc3)s2)c(C)[nH]c1=O [Example 152, 3-Ethyl-6-methyl-5-{5-{[(pyridin-4-ylmethyl)-amino]-methyl-thiophen-2-yl)-1H-pyridin-2-one dihydrochloride] | – | 0.83
21 | CCc1cc(-c2ccc(S(=O)(=O)NCCN3CCCCC3)o2)c(C)[nH]c1=O [Example 50, 5-(5-Ethyl-2-methyl-6-oxo-1,6-dihydropyridin-3-yl)furan-2-sulfonic acid (2-piperidin-1-yl)ethylamide hydrochloride] | – | 0.27
22 | CCc1cc(-c2ccc(S(=O)(=O)NCCCN(C)C)s2)c(C)[nH]c1=O [Example 34, 5-(5-Ethyl-2-methyl-6-oxo-1,6-dihydropyridin-3-yl)thiophene-2-sulfonic acid (3-dimethylaminopropyl)amide hydrochloride] | – | 4.5
23 | CCc1cc(-c2ccc(CN3CCCC(CO)C3)s2)c(C)[nH]c1=O (centres unmarked) [Example 131, 3-Ethyl-5-[5-(3-hydroxymethyl-piperidin-1-ylmethyl)-thiophen-2-yl]-6-methyl-1H-pyridin-2-one hydrochloride] | – | 0.47
24 | CCc1cc(-c2ccc(S(=O)(=O)NCc3cncc(C)n3)s2)c(C)[nH]c1=O [Example 73, 5-[5-Ethyl-2-methyl-6-oxo-1,6-dihydropyridin-3-yl]thiophene-2-sulfonic acid (6-methylpyrazin-2-yl)methylamide hydrochloride] | – | 0.42
25 | CCc1cc(-c2ccc(CNC3CCC3)s2)c(C)[nH]c1=O [Example 137, 5-(5-Cyclobutylaminomethyl-thiophen-2-yl)-3-ethyl-6-methyl-1H-pyridin-2-one hydrochloride] | – | 0.52
26 | CCc1cc(-c2ccc(S(=O)(=O)N3CCN(CCN(C)C)CC3)s2)c(C)[nH]c1=O [Example 64, 5-{5-[4-(2-Dimethylaminoethyl)piperazine-1-sulfonyl]thiophen-2-yl}-3-ethyl-6-methyl-1H-pyridn-2-one dihydrochloride] | – | 1.5
27 | CCc1cc(-c2ncnn2C)c(C)[nH]c1=O [Example 17, 3-Ethyl-6-methyl-5-(2-methyl-2H-1,2,4-triazol-3-yl)-1H-pyridin-2-one] | – | 1.7
28 | CCc1cc(-c2cccc(C#N)c2)c(C)[nH]c1=O [Example 1, 3-(5-Ethyl-2-methyl-6-oxo-1,6-dihydropyridin-3-yl)benzonitrile] | – | 0.4
29 | CCc1cc(-c2ccc(S(=O)(=O)NC3CCN(Cc4ccncc4)CC3)s2)c(C)[nH]c1=O [Example 82, 5-[5-Ethyl-2-methyl-6-oxo-1,6-dihydropyridin-3-yl]thiophene-2-sulfonic acid [1-(pyridin-4-yl)methyl(piperidin-4-yl)]amide dihydrochloride] | – | 0.48
30 | CCc1cc(-c2ccc(CNC3CCN(Cc4ccccc4)CC3)s2)c(C)[nH]c1=O [Example 151, 5-{5-[(1-Benzyl-piperidin-4-ylamino)-methyl]thiophen-2-yl}-3-ethyl-6-methyl-1H-pyridin-2-one dihydrochloride] | – | 0.92
31 | CCc1cc(-c2ccc(S(=O)(=O)NCc3nccn3C)s2)c(C)[nH]c1=O [Example 80, 5-[5-Ethyl-2-methyl-6-oxo-1,6-dihydropyridin-3-yl]thiophene-2-sulfonic acid (1-methylimidazol-2-yl)methyl]amide hydrochloride] | – | 0.43
32 | CCc1cc(-c2ccc(CN3CCC(c4ccccc4)CC3)s2)c(C)[nH]c1=O [Example 184, 3-Ethyl-6-methyl-5-[5-(4-phenylpiperidin-1-ylmethyl)thiophen-2-yl]-1H-pyridin-2-one hydrochloride] | – | 2.7
